Test [1] is described as follows: alpha-synuclein stem-loop luciferase translation blockers – H4 neuroglioma cells, luminescence, confirmation (AID 1988). The test is classed as functional, cell-based.
Test [2] is described as follows: Luminescence Cell-Based Dose Response HTS to Identify Inhibitors of 5'UTR Stem-Loop Driven Prion Protein mRNA Translation in H4 Neuroglioblastoma Cells. [Related pubchem assays: 1827 (Project Summary), 1813 (Primary HTS)]. The test is classed as functional.
Test [3] is described as follows: luciferase reporter signal suppression in cells – H4 neuroglioma cells, luminescence, dose response (AID 1990). The test is classed as functional, cell-based. In general terms: A reporter such as luciferase makes a cellular process visible.
Test [4] has as its target Luciferin 4-monooxygenase (Photinus pyralis, UniProt P08659). Nature of the test: inhibition of purified Photinus pyralis luciferase – biochemical, luminescence, dose response (AID 1891).
Test [5] is described as follows: Luminescence Cell-Based Dose Confirmation HTS to Identify Inhibitors of Platelet Dense Granule Release. [Related pubchem assays: 1663 (Primary HTS), 1678 (Summary of Project)]. The test is classed as functional.
The target in test [6] is T1, RNA-binding protein pos-1 (Caenorhabditis elegans, UniProt G5EF15).
T1 sequence (G5EF15 whole entry): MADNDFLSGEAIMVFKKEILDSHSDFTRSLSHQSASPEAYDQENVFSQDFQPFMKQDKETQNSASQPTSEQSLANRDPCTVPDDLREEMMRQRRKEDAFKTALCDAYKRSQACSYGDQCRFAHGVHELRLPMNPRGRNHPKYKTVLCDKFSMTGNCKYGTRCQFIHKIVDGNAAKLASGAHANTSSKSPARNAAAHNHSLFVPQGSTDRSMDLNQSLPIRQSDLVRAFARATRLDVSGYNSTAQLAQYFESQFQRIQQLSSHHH
Nature of the test: disruptors of C. elegans POS-1 RNA interaction – biochemical, fluorescence polarization, dose response (AID 1964).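 Also: purified POS-1 fused to maltose binding protein made in E. coli; potency of compounds blocking POS-1 binding to fluorescent RNA.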 In general terms: Polarisation of emitted light reports the rotation of a fluorescent probe.

Test [7] has as its target T2, Zinc finger protein mex-5 (Caenorhabditis elegans, UniProt Q9XUB2).
T2 sequence (Q9XUB2 whole entry): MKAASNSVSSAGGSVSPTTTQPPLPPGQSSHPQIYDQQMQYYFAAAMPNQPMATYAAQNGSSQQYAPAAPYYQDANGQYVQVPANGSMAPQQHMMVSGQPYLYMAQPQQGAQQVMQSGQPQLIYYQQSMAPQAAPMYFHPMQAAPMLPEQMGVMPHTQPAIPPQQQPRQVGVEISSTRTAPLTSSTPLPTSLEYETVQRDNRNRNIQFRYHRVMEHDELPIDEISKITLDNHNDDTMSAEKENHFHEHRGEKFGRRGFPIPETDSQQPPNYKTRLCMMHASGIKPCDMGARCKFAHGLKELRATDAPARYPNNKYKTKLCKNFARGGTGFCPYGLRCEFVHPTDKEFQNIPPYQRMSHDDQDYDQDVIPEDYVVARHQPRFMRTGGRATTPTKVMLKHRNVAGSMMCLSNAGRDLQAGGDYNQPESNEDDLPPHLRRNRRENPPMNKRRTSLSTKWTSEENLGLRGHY
Nature of the test: potency of MEX-5 RNA-binding blockers – biochemical, C. elegans, fluorescence polarization, dose response (AID 1960).

The nature of test [8]: NIH3T3 cell viability loss – ATP luminescence, mouse fibroblasts, counter-screen, dose response (AID 2010).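 Also: cells exposed to compound for about 90 hours before reading.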 The test is classed as functional, cell-based.
A short description of test [9]: Trypanosoma cruzi growth suppression in host cells – NIH3T3 host cells, beta-gal luminescence, confirmation (AID 2044).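 Also: intracellular parasites grown in NIH/3T3 mouse fibroblasts as host cells; luminescent beta-galactosidase reporter signal from transgenic T. cruzi replicating inside host cells; inhibitors lower the luminescence signal.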 The test is classed as functional, cell-based.
The subject of the next test is INS1. Nature of the test: INS-1E survival protection against cytokine death – cell-based, luminescence, retest, dose response (AID 449756).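 Also: cell death triggered by IL-1 beta plus TNF-alpha plus IFN-gamma mixture; protective hits raise ATP signal compared with cytokine alone wells.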 To be noted: Rattus norvegicus. The test is classed as functional.
Test [10] is described as follows: fluconazole-exposed Candida albicans growth modulators – fluorescence, retest, confirmation (AID 2467). The test is classed as functional, cell-based.
The nature of test [11]: NIH-3T3 fibroblast cytotoxicity, dose response, cytotoxicity control, cell-based, fluorescence, Alamar Blue, secondary assay (AID 2327).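 Also: NIH-3T3 mouse fibroblasts cultured with fluconazole at 8 µg/mL.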 The test is classed as functional. (Alamar Blue is a resazurin reagent that responds to reducing activity.)
The test system of another test is Streptococcus. Nature of the test: GAS UMAA2166 growth inhibition – luminescence, BacTiterGlo, counter-screen for streptokinase expression inhibitor project, dose response (AID 1915).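 Also: potency for reduction of bacterial viability or growth.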 The test is classed as functional, organism-based.
Test [12] relates to Streptococcus sp. 'group A'. Nature of the test: Streptococcus pyogenes SK(-)GAS viability under kanamycin – luminescence, BacTiterGlo, confirmation, counter-screen for streptokinase expression inhibitor project, dose response (AID 1900). The test is classed as functional, organism-based.

The source made the active and inactive calls. Rule as the data show it, for most assays here: actives have a measured EC50 and inactives only a lower limit.

Luciferin 4-monooxygenase, sequence (P08659 whole entry): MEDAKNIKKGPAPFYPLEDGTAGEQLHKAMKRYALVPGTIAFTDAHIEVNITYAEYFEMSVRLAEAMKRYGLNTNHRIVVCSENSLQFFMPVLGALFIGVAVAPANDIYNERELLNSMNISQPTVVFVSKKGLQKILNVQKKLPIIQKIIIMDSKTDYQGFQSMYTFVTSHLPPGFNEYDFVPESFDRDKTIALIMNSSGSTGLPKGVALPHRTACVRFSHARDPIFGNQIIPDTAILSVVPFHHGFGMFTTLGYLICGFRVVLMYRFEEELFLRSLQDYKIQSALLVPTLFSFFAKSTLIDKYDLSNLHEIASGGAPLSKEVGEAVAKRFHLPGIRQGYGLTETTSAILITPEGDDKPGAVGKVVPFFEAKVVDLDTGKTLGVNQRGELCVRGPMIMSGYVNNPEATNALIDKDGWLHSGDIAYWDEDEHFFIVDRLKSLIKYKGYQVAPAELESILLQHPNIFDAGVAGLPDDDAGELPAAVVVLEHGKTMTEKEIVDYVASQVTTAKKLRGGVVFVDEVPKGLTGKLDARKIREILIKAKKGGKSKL

As for `Nc1nc(NCCc2ccccc2)nc(NCCO)c1[N+](=O)[O-]`, the EC50 in test [1] was 39.1 µM (active); in test [2] it was > 120 µM (not active); in test [3] it was 19.1 µM (active).
Consider `O=C(NCc1ccco1)c1ccc(-c2ccccc2Cl)o1`, for which the EC50 in test [4] and in test [5] was > 112 µM (not active) throughout.
In the case of `CCc1nc(SCC(=O)Nc2cccc(C(F)(F)F)c2)c2c(=O)n(C)c(=O)n(C)c2n1`, the results for the EC50 in [1], in test [2] and in test [3] were 15.9 µM (active), 16.4 µM (active) and 19.1 µM (active), respectively.
As to `FC(F)(F)c1cc(C(F)(F)F)n2nc(-c3sccc3-n3cccc3)cc2n1`, the EC50 in [6] and in test [7] was > 300 µM (not active) throughout.
Take `Cc1nc(O)nc(O)c1/C=N/NC(=O)CCNC(=O)OC(C)(C)C`: the EC50 in test [4] and in test [5] was > 112 µM (not active) throughout.
On to `Cc1cc(N)n2nc(-c3ccc(C(C)(C)C)cc3)cc2n1`, for which the values for the EC50 in test [4] and in [5] were 0.401 µM (active) and 2.35 µM (active), respectively.
Turning to `COc1ccccc1N1CCN(C(=O)c2cc(-c3ccccc3O)on2)CC1`, the EC50 in test [4] and in test [5] was > 112 µM (not active) in each case.
For the molecule `C/C(=N/N=C(\C)c1ccccc1O)c1ccccc1O`, the concentration for a half-maximal effect (EC50) in test [6] is > 300 µM (not active); in test [7], > 300 µM (inconclusive).
`COc1ccc(CCNCc2ccc(OCC(=O)N3CCCCC3)c(OC)c2)cc1OC`: the 50% effective concentration (EC50) in test [8] is > 60 µM (inconclusive); in [4] it was > 112 µM (not active); in [9], 133 nM (active); in [5] it was 16.3 µM (active).
As to `COc1ccccc1C(=O)NCCC(=O)Nc1ncccc1O`, the EC50 in [4] and in test [5] was > 112 µM (not active) in each case.
As to `COc1ccc(-c2cn3c([n+]2-c2ccccc2)CCCCC3)cc1`, in the test on INS1, the AC50 is 2.58 µM (active). Moreover, the EC50 in [10] is 2.53 µM (active); in test [11], > 150 µM (inactive).
As to `Cn1cc(S(=O)(=O)N2CCOCC2)cc1C(=O)Nc1ccc(Cl)cc1`, the EC50 in test [4] and in [5] was > 112 µM (not active) throughout.
For `CC1CCCCN1Cc1nc2c(c(=O)n(C)c(=O)n2C)n1CCc1ccccc1` (configuration not stated), the 50% effective concentration (EC50) in test [4] and in test [5] was > 112 µM (not active) throughout.
`CCOC(=O)c1ccc2nc(NC(=O)c3cccs3)sc2c1`: the EC50 in [4] was 0.729 µM (active); in test [5], 10.7 µM (active).
In the case of `CCN1C(=C(C#N)C#N)C=Cc2ccccc21`, the EC50 in [6] is > 300 µM (inconclusive); in test [7] it was > 300 µM (not active).
`O=C(O)CCc1ccc(-c2ccccc2)n1-c1cccc(C(=O)O)c1`: the EC50 in test [6] and in test [7] was > 300 µM (not active) throughout.
With `COc1ccc(/C=C/CN2CCCC(CO)(Cc3cccc(Cl)c3)C2)cc1` (configuration not stated), the EC50 in test [4] and in test [5] was > 112 µM (not active) throughout.
In the case of `Cc1cc(NC(=O)/C=C/c2cccc(Cl)c2)n(-c2nc3ccccc3[nH]2)n1`, the EC50 in test [4] is > 112 µM (not active); in [5] it was 49.7 µM (active).
For `Cc1ccc(N(C)S(=O)(=O)c2c(C)noc2/C=C/N(C)C)cc1`, the concentration for a half-maximal effect (EC50) in test [6] and in [7] was > 300 µM (not active) each time.
As to `CCCCCCN1C(=O)/C(=C/Nc2ccccc2N2CCOCC2)C(=O)NC1=S`, the EC50 in test [6] was > 300 µM (not active); in test [7] it was > 300 µM (inconclusive).
Consider `COCCCNc1nc(N)c([N+](=O)[O-])c(NCc2ccccc2)n1`, for which the EC50 is 14.2 µM (active) in test [1], > 120 µM (not active) in test [2] and 19.4 µM (active) in test [3].
On to `CCOc1cccc(-c2c(C(=O)N/N=C/c3ccc(C)s3)nnn2-c2nonc2N)c1`, for which the EC50 in [4] and in [5] was > 112 µM (not active) each time.
In the case of `CCOC(=O)C1=C(C)OC(N)=C(C#N)C1C1CCCCC1` (configuration not stated), the EC50 in test [4] and in test [5] was > 112 µM (not active) in each case.
Regarding `CCCCN(C)S(=O)(=O)c1ccc(C(=O)Nc2nnc(-c3cccs3)o2)cc1`, the EC50 in test [8] is 8 µM (active); in test [10], 0.861 µM (active); in the test with Streptococcus, 3.65 µM (active); in test [11] it was > 150 µM (inactive); in [9], 1090 nM (active); in test [12], 680 nM (active).
For the molecule `O=C(Cn1cncn1)N/N=C/c1c2ccccc2cc2ccccc12`, the EC50 in [6] and in [7] was > 300 µM (not active) in each case.
As to `Cc1ccc(C)c(N(CC(=O)Nc2ccccc2C(=O)NCc2ccco2)S(=O)(=O)c2ccccc2)c1`, the EC50 is > 120 µM (not active) in test [1], > 120 µM (not active) in test [2] and 15.6 µM (active) in test [3].
With `CC/C(NCCCN(C)C)=C1/C(=O)NC(=O)N(c2ccc(OC)cc2)C1=O`, the EC50 in test [6] and in [7] was > 300 µM (not active) each time.
For the molecule `CCc1ccc(/C=C2\Oc3c(ccc(O)c3CN3CCN(CCO)CC3)C2=O)cc1`, the EC50 in [6] was 37.1 µM (active); in test [7] it was 73.3 µM (active).
Regarding `O=C(Cn1cc2c(n1)CCCC2)NCc1cccc(Cl)c1`, the EC50 in [1], in [2] and in test [3] was > 120 µM (not active) throughout.
As to `O=C(O)c1ccc(COc2cccc(CO)c2)cc1`, the EC50 in test [4] was 44.4 µM (active); in test [5], 4.38 µM (active).

By EC50 is commonly meant the concentration that produces a half-maximal response. Broadly, the AC50 is the midpoint of the concentration-response curve, whichever way the signal moves.

The values are drawn from ChEMBL document CHEMBL1201862, “PubChem BioAssay data set” (2004).
